The record followed here is ChEMBL document CHEMBL4842348 (J Med Chem, 2021).

Usually Cmax stands for the maximum level reached in the sampled fluid or tissue. One may read the bioavailability as dose-corrected exposure relative to a reference, in per cent. The term AUC(0-inf) denotes total exposure, with the tail of the curve extrapolated.

Data set [1] can be described thus: Drug recovery in bile duct cannulated single po dosed rhesus monkey assessed as recovered parent compound in bile relative to total recovery. Conditions: in vivo. It is filed as ADME, organism-based, Macaca mulatta.
Data set [2] is described as follows: Terminal half life in DIO NFR-transgenic mouse adipose tissue at 10 mg/kg, po once daily for 14 days. The data set is classed as ADME, organism-based. Conditions: time 14 day, read-out: beta t1/2 (converted).
A short description of data set [3]: Drug recovery in bile duct cannulated single po dosed rhesus monkey assessed as recovered glucuronide conjugate in feces relative to total recovery. It is filed as ADME, organism-based, Macaca mulatta. Conditions: in vivo.
Data set [4] in a line: Cmax in fasted dog at 1 mg/kg, po in 0.5% methocel. The data set is classed as ADME, organism-based, Canis lupus familiaris. On the set-up: route oral, dose 1 mg/kg. The note with it: in vivo.
Data set [5] in a line: Terminal half life in DIO NFR-transgenic mouse liver at 10 mg/kg, po once daily for 14 days. The data set is classed as ADME, organism-based. The note with it: time 14 day, read-out: beta t1/2 (converted).
Data set [6] can be described thus: Oral bioavailability in rhesus monkey at 2 mg/kg. It is filed as ADME, organism-based, Macaca mulatta. The note with it: in vivo.
A short description of data set [7]: Normalized AUC (0 to 72 hrs) in high fat diet fed dog at 1 mg/kg, po in 0.5% methocel. The data set is classed as ADME, organism-based, Canis lupus familiaris. The note with it: in vivo.
Data set [8] in a line: Cmax in CD1 mouse at 2 mg/kg, po. It is filed as ADME, organism-based. On the set-up: route oral, dose 2 mg/kg. The note with it: in vivo.
Data set [9] can be described thus: AUC (0 to infinitive) in Beagle dog at 2 mg/kg, po. It is filed as ADME, organism-based, Canis lupus familiaris. On the set-up: route oral, time infinity, dose 2 mg/kg. Conditions: in vivo.
A short description of data set [10]: AUC (0 to infinitive) in rhesus monkey at 2 mg/kg, po. The data set is classed as ADME, organism-based, Macaca mulatta. On the set-up: route oral, time infinity, dose 2 mg/kg. The note with it: in vivo.
Data set [11] in a line: Cmax in Beagle dog at 2 mg/kg, po. It is filed as ADME, organism-based, Canis lupus familiaris. More on the design: route oral, dose 2 mg/kg. The note with it: in vivo.
Data set [12] can be described thus: Volume of distribution at steady state in rhesus monkey at 0.5 mg/kg, iv. The data set is classed as ADME, organism-based, Macaca mulatta. Conditions: in vivo, read-out: Vdss.
A short description of data set [13]: Cmax in WH rat at 2 mg/kg, po. The data set is classed as ADME, organism-based. More on the design: route oral, dose 2 mg/kg. Conditions: in vivo.
The nature of data set [14]: Terminal half life in DIO NFR-transgenic mouse plasma at 10 mg/kg, po once daily for 14 days. It is filed as ADME, organism-based. The note with it: time 14 day, read-out: beta t1/2 (converted).
Data set [15] in a line: Half life in lean wild type mouse adipose tissue at 10 mg/kg, po qd treated for 40 days. The data set is classed as ADME, organism-based. The note with it: time 40 day.
Data set [16] can be described thus: Oral bioavailability in CD1 mouse at 2 mg/kg. The data set is classed as ADME, organism-based. Conditions: in vivo.
Data set [17] is described as follows: Dose normalized AUC in CD1 mouse at 1 mg/kg, iv and 2 mg/kg, po. The data set is classed as ADME, organism-based. The note with it: in vivo.
Data set [18] is described as follows: AUC (0 to infinitive) in CD1 mouse at 2 mg/kg, po. The data set is classed as ADME, organism-based. On the set-up: route oral, time infinity, dose 2 mg/kg. Conditions: in vivo.
Data set [19] is described as follows: Half life in DIO wild type mouse liver at 10 mg/kg, po qd treated for 40 days. The data set is classed as ADME, organism-based. The note with it: time 40 day.
Data set [20] in a line: Terminal half life in WH rat at 1 mg/kg, iv. It is filed as ADME, organism-based. The note with it: in vivo, read-out: beta t1/2 (converted).
A short description of data set [21]: Drug recovery in bile duct cannulated single iv dosed WH rat assessed as recovered parent compound in feces relative to total recovery. The data set is classed as ADME, organism-based. The note with it: in vivo.
A short description of data set [22]: Drug recovery in bile duct cannulated single po dosed WH rat assessed as recovered parent compound in bile relative to total recovery. It is filed as ADME, organism-based. The note with it: in vivo.

With `COc1ncc(-c2ccc(C(=O)O)cc2C)cc1-c1ccc(C(F)(F)F)cc1[C@@H]1CC[C@H]2[C@@H](c3cc(C(F)(F)F)cc(C(F)(F)F)c3)OC(=O)N12`, the Drug recovery is less than 1% in data set [1], 5% in data set [3], greater than 98% in data set [21] and less than 2% in [22]. In addition, the half-life at […] was 2.8 h in data set [2], 5.5 h in [5] and 3.8 h in data set [14]. Further, the Cmax stood at 500 nM in data set [4], 430 nM in data set [8], 690 nM in data set [11] and 400 nM in data set [13]. In addition, the bioavailability in data set [6] was 8.4%; in [16] it was 43%. The AUC/dose turned out to be 4.2 µM·kg·h/mg in data set [7] and 9.2 µM·h in data set [17]. Besides, the values for the AUC(0-inf) in data set [9], in [10] and in [18] were 13 µM·h, 11 µM·h and 7.9 µM·h, respectively. Besides, in data set [12], the Vd came out at 1.3 L/kg. Besides, the half-life in data set [15] is 0.8 h; in data set [19], 76.8 h; in data set [20], 8.1 h.
